# Reference: patent publication US6528516B1, “Methods for reducing intraocular pressure using A3 adenosine receptor antagonists” (Trustees of the University of Pennsylvania, The Center for …, priority 1998, dated 2003)
# Entries after “also recorded” stand apart in the source; their conditions may differ.
# Key:
# [1] = system: bovine pigmented ciliary epithelial (PE) cells; assay: Cell volume (shrinkage) of PE cells in isoosmotic suspension, Coulter Counter; format: cell-based; settings: for effect of tamoxifen alone on PE cell volume: absence of ATP, 30-min observation
# Bovine PE cells = assay: Intracellular Ca2+ of PE cells (fura-2); format: cell-based; settings: for effect of TMX on the Ca2+ response to ATP: 10 μM TMX, 100 μM ATP, 20-sec applications
# Description: Bovine PE cells grown on coverslips for 2-4 days were loaded with 5 μM fura-2 μAM for 30-45 min at room temperature, and then rinsed and maintained in fura-free solution before beginning data acquisition. The coverslips were mounted on a Nikon Diaphot microscope and visualized with a ×40 oil-immersion fluorescence objective. The emitted fluorescence (510 nm) from 10-12 confluent cells was sampled at 1 Hz following excitation at 340 nm and 380 nm, and the ratio determined with a Delta-Ram system and Felix software (Photon Technology International Inc., Princeton, N.J.). The ratio of light excited at 340 nm to that at 380 nm was converted into Ca^2+ concentration using the method of Grynkiewicz et al. (J. Biol. Chem. 260:3440-3450, 1985). […] Rmin was obtained by bathing cells in a Ca^2+ free isotonic solution of pH 8.0 containing 10 mM EGTA and 5 μM ionomycin. R^max was obtained by bathing the cells in isotonic solution with 1.3 mM Ca^2+ and 5 μM ionomycin. Calibration was performed separately for each experiment. Baseline levels from PE cells in the absence of fura-2 were subtracted from records to control for autofluorescence. Experiments were performed predominantly at room temperature, but several trials were performed at 37° C. using a temperature control unit from Warner Instrument Corp., (Hamden, Conn.). Cells were perfused with an isotonic solution containing (in mM) 105 NaCl, 6HEPES (acid), 4HEPES (Na^+), 1.3 CaCl2, 1 MgCl2, 4 KCl, 5 glucose and 90 mannitol, at an osmolarity of 317 mOsm, pH 7.4.
# [2] = system: swelling-activated Cl− channels of NPE cells; assay: Regulatory volume decrease (RVD) of NPE cells after hypotonic swelling; format: cell-based, human; settings: for effect on cell volume after RVD: TMX added at t=10 min, conclusion of the RVD
# [3] = system: large-conductance Cl− channel, NIH 3T3 fibroblasts transfected with MDR1; settings: NIH 3T3 fibroblasts after MDR1 transfection and growth in colchicine; read-out: EC50 for activation of large-conductance Cl− channel; cited from earlier work
# [4] = 6 μM tamoxifen + 10 μM ATP, 5 μM gramicidin D, Cl− present, FIG. 12A
# [5] = 6 μM tamoxifen + 10 μM ATP, FIG. 8C
# [6] = 10 μM tamoxifen + 100 μM ATP, FIG. 15, first 6 time points
# [7] = 10 μM tamoxifen + 100 μM ATP, FIG. 16A
# [8] = 100 μM ATP + 10 μM TMX, FIG. 13C
# [9] = 100 μM ATP + 10 μM agent, FIG. 13A
# [10] = 100 μM ATP + 10 μM agent, FIG. 14A
# [11] = ATP + agent (ATP+TMX; ATP+atropine), FIG. 13B
# [12] = ATP + tamoxifen, absence of Cl− channel inhibitors, FIG. 12B
smiles,measurement,setting,value
CC/C(=C(\c1ccccc1)c1ccc(OCCN(C)C)cc1)c1ccccc1 [tamoxifen],steady-state cell volume (v∞),"[1]; 3 μM ATP+10 μM TMX, FIG. 8B",96.7±0.4%
same,time constant of the shrinkage (τ),"[1]; 3 μM ATP+10 μM TMX, FIG. 8B",5.8 ± 2.1 min
same,steady-state cell volume (v∞),[1]; [4],90.6%±1.1%
same,time constant of the shrinkage (τ),[1]; [4],13.2 ± 3.2 min
same,steady-state cell volume (v∞),[1]; [5],95.7±0.7%
same,time constant of the shrinkage (τ),[1]; [5],6.6 ± 3.2 min
same,steady-state cell volume (v∞),"[1]; 10 μM ATP + 6 μM TMX, FIG. 10A",92.8±0.8%
same,time constant of the shrinkage (τ),"[1]; 10 μM ATP + 6 μM TMX, FIG. 10A",11.4 ± 0.3 min
same,steady-state cell volume (v∞),"[1]; 10 μM ATP+10 μM TMX, FIG. 8B",95.7±0.3%
same,time constant of the shrinkage (τ),"[1]; 10 μM ATP+10 μM TMX, FIG. 8B",1.4 ± 0.7 min
same,effect of agent on shrinkage in the presence of ATP,"[1]; 10 μM agent, 100 μM ATP, FIG. 13A",enhanced shrinkage
same,steady-state cell volume (v∞),[1]; [6],89.7±6.1%
same,time constant of the shrinkage (τ),[1]; [6],22.9 ± 19.0 min
same,steady-state cell volume (v∞),[1]; [7],93.9±1.0%
same,time constant of the shrinkage (τ),[1]; [7],15.6 ± 5.0 min
same,steady-state cell volume (v∞),[1]; [8],89.6±1.9%
same,time constant of the shrinkage (τ),[1]; [8],11.3 ± 4.7 min
same,steady-state cell volume (v∞),[1]; [9],94.1±0.6%
same,time constant of the shrinkage (τ),[1]; [9],6.5 ± 2.3 min
same,steady-state cell volume (v∞),[1]; [10],94.8±0.4%
same,time constant of the shrinkage (τ),[1]; [10],2.2 ± 10.8 min
same,effect of tamoxifen on the ATP-triggered shrinkage,[1]; 6-10 μM tamoxifen with ATP,strongly enhanced; also recorded: enhanced the response; also recorded: enhanced the ATP-triggered shrinkage
same,steady-state cell volume (v∞),[1]; [11],88.4±0.5%
same,time constant of the shrinkage (τ),[1]; [11],7.2 ± 0.9 min
same,steady-state cell volume (v∞),[1]; [12],94.2%±0.3%
same,time constant of the shrinkage (τ),[1]; [12],4.4 ± 0.8 min
same,effect of tamoxifen alone on PE cell volume,[1],no consistent response
same,effect of tamoxifen alone on PE cell volume,[1]; listed as Tamoxifen,no consistent effect
same,effect of TMX on the Ca2+ response to ATP,Bovine PE cells,does not alter the magnitude of the response
same,effect of TMX on the Ca2+ response to ATP,Bovine PE cells; listed as TMX,did not affect the size
same,change (Δ) in intracellular Ca2+,Bovine PE cells; 10 μM tamoxifen alone,7 ± 6 nM
same,effect of tamoxifen alone on Ca2+,Bovine PE cells; tamoxifen alone,no significant effect
same,effect on regulatory volume decrease (RVD),[2]; TMX added at t=5 min,reduced the magnitude of the RVD
same,effect on regulatory volume decrease (RVD),"[2]; TMX added at t=5 min, listed as TMX",partially inhibited the steady-state response
same,effect on cell volume after RVD,[2],did not affect cell volume
same,effect on cell volume after RVD,[2]; listed as TMX,no effect on cell volume
same,effect on regulatory volume decrease (RVD),"[2]; TMX added at the time of hypotonic stress, 5 μM gramicidin D",completely abolished the RVD
same,effect on regulatory volume decrease (RVD),"[2]; TMX added at the time of hypotonic stress, 5 μM gramicidin D, listed as TMX",abolished the RVD
same,EC50,[3],~15 µM
